Test results: US20060199801A1, “Heterobicyclic compounds used as fungicides” (priority 2003, published 2006)

Key:
[1] = test system: Erysiphe [syn. Blumeria] graminis forma specialis tritici; assay: Activity against mildew of wheat caused by Erysiphe [syn. Blumeria] graminis forma specialis tritici, protective use; type: in vivo; settings: 250 ppm spray, wheat seedlings cultivar Newton, visual rating after 7 days, % of entire leaf area, untreated 90%
Experimental: Activity Against Mildew of Wheat Caused by Erysiphe [syn. Blumeria] graminis form a Specialis tritici, Protective Use
Leaves of wheat seedlings, grown in pots, of the cultivar “Newton” were sprayed to runoff point with an aqueous suspension having the concentration of active compound stated below. The suspension or emulsion was prepared from a stock solution comprising 5% of active compound, 94% of cyclohexanone and 1% of emulsifier (Tween 20) by dilution with water. 3-5 hours after the spray coating had dried on, the […] of wheat (Erysiphe [syn. Blumeria] graminis form a specialis. tritici). The test plants were then placed in a greenhouse at 20-24° C. and 60-90% relative atmospheric humidity. After 7 days, the extent of the mildew development was determined visually in % infection of the entire leaf area.

Alternaria solani = assay: Activity against early blight of tomato caused by Alternaria solani, protective use; type: in vivo; settings: 250 ppm spray, tomato cultivar Large Fruited St. Pierre, visual rating after 5 days, untreated 80%
Experimental: (§1) For use examples 1 and 2, the active compounds were formulated as a stock solution 15 with 0.25% by weight of active compound in acetone or dimethyl sulfoxide (DMSO). 1% by weight of the emulsifier Uniperol® EL (wetting agent having emulsifying and dispersant action based on ethoxylated alkylphenols) was added to this solution, and the mixture was diluted with water to the desired concentration.
Activity Against Early Blight of Tomato Caused by Alternaria solani, Protective Use
Leaves of potted plants of the tomato cultivar “Large Fruited St. Pierre” were sprayed to runoff point with an aqueous suspension having the concentration of active compound stated below. The next day, the leaves were infected with an aqueous spore suspension of Alternaria solani in a 2% biomalt solution having a density of 0.17×10^6 spores/ml. The plants were then placed in a water-vapor-saturated chamber at 20-22° C. After 5 days, the blight on the untreated but infected control plants had developed to such an extent that the infection could be determined visually in %.

Plasmopara viticola = assay: Activity against Peronospora of grapevines caused by Plasmopara viticola, protective use; type: in vivo; settings: 250 ppm spray, grapevine cultivar Müller-Thurgau, visual rating of leaf undersides, untreated 90%
Experimental: as §1
Activity against Peronospora of Grapevines caused by Plasmopara viticola, Protective Use
Leaves of potted grapevines of the cultivar “Müller-Thurgau” were sprayed to runoff point with an aqueous suspension having the concentration of active compound stated below. The next day, the undersides of the leaves were inoculated with an aqueous zoospore suspension of Plasmopara viticola. The grapevines were then initially placed in a water-vapor-saturated chamber at 24° C. for 48 hours and then in a greenhouse at 20-30° C. for 5 days. After this period of time, the plants were again placed in a humid chamber for 16 hours to promote sporangiophore eruption. The extent of the development of the infection on the undersides of the leaves was then determined visually.

melting point	Structure (SMILES)	Infection [%] at 250 ppm [1]	Infection [%] at 250 ppm (Alternaria solani)	Infection [%] at 250 ppm (Plasmopara viticola)
	CCCC(C)c1c(-c2ccc(C)cc2C)c(C)nn2cnnc12 (racemic) [Example 14]	20%		
	Cc1nn2cnnc2c(CCC(C)(C)C)c1-c1ccc(F)cc1F [Example 11]		20%	0%
	Cc1nn2cnnc2c(C2CCCCC2)c1-c1ccc(F)cc1F [Example 8]		0%	0%
	Cc1ccc(-c2c(C)nn3cnnc3c2CCC(C)(C)C)c(C)c1 [Example 15]	20%		3%
	Cc1ccc(-c2c(C)nn3cnnc3c2C2CCCCC2)c(C)c1 [Example 9]			20%
	CCCCc1c(-c2ccc(C)cc2F)c(C)nn2cnnc12 [Example 5]			0%
	Cc1ccc(-c2c(C)nn3cnnc3c2CC(C)C)c(F)c1 [Example 7]		20%	
	CCC(C)C(C)c1c(-c2ccc(C)cc2F)c(C)nn2cnnc12 (single isomer, unassigned) [Example 20]	5%		
	CCCC(C)c1c(-c2ccc(F)cc2F)c(C)nn2cnnc12 (single isomer, unassigned) [Example 18]	7%		10%
	Cc1nn2cnnc2c(CC(C)C)c1-c1ccccc1 [Example 1, 7-Phenyl-8-isobutyl-6-methyl-[1,2,4]triazolo[4,3-b]pyridazine]		10%	20%
	CC1CCN(c2c(-c3c(F)cccc3Cl)c(Cl)nc3nnnn23)CC1 [Example 23, 5-Chloro-6-(2-chloro-6-fluorophenyl)-7-(4-methylpiperidin-1-yl)-tetrazolo[1,5-a]pyrimidine]	15%		
	Cc1nc2c(C#N)ncn2c(N[C@H](C)C(C)C)c1-c1c(F)cc(F)cc1F [Example 36]		7%	
	CCC(C)C(C)c1c(-c2ccc(F)cc2C)c(C)nn2cnnc12 (mixture of isomers) [Example 16]		20%	
103 to 105 °C	Cc1nn2ncnc2c(CC(C)C)c1-c1ccc(F)cc1F [Example 38, 7-(2,4-Difluorophenyl)-8-isobutyl-6-methyl-[1,2,4]triazolo[1,5-b]pyridazine]			
	Cc1ccc(-c2c(C)nn3cnnc3c2CCC(C)(C)C)c(F)c1 [Example 12]		3%	3%
	CCCC(C)c1c(-c2ccc(F)cc2C)c(C)nn2cnnc12 (racemic) [Example 13]		10%	
	Cc1cc(F)ccc1-c1c(C)nn2cnnc2c1CC(C)C [Example 2]		15%	0%
	Cc1cc(F)ccc1-c1c(C)nn2cnnc2c1C1CCCCC1 [Example 10]			0%
	CCC(C)C(C)c1c(-c2ccc(C)cc2F)c(C)nn2cnnc12 (single isomer, unassigned) [Example 22]	7%		
	CCCCc1c(-c2ccc(F)cc2C)c(C)nn2cnnc12 [Example 3]		25%	0%
	CCCC(C)c1c(-c2ccc(C)cc2F)c(C)nn2cnnc12 (single isomer, unassigned) [Example 19]	20%		
	CCCCc1c(-c2ccc(F)cc2F)c(C)nn2cnnc12 [Example 4]		10%	0%
	Cc1nn2cnnc2c(CC(C)C)c1-c1ccc(F)cc1F [Example 6]			0%
	CCCC(C)c1c(-c2ccc(F)cc2F)c(C)nn2cnnc12 (single isomer, unassigned) [Example 21]	3%		3%
